Results reported in US20110251188A1, “ACENAPHTHO HETEROCYCLE COMPOUNDS, CYCLODEXTRIN INCLUSION COMPOUNDS AND COMPLEXES, AND USES IN THE MANUFACTURES OF BH3 PROTEIN ANALOGUE, BCL-2 FAMILY PROTEIN INHIBITORS THEREOF” (DALIAN UNIVERSITY OF TECHNOLOGY, priority 2008, published 2011).
≈ marks a conversion by molar mass, not a printed value. Each block holds one compound with its values, some of them ahead of it.

Experiments:
[1] = molecular target: T1, interaction between Bcl-2 and Bax (Homo sapiens, UniProt P10415); test: intracellular fluorescence polarization energy transfer (FRET), Hela cells transfected with Bcl-2-CFP and Bax-YFP; format: cell-based
T1 construct: expressed in transfected cells; host or cells: Hela cells
T1 sequence (P10415 whole entry): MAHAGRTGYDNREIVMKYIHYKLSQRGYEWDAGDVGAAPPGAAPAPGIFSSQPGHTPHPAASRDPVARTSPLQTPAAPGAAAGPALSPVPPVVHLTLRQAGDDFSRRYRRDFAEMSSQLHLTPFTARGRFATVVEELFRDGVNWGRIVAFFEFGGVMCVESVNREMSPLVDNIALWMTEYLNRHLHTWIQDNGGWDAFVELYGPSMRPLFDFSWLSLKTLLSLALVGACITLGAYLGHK
Description: 24 hours later (please refer to FIG. 2), the cells were washed with PBS for three times. The fluorescence value was detected by GENIOS fluorescence enzyme-labelled meter (TECAN, Swiss). In time-dependent experiment, the transfected cells were inoculated in a 6-well plate, after that, 40 μM of the compound was added thereinto. 3, 6 and 24 hours later (FIG. 3), the fluorescence intensities were detected by plate reader. As for the cell group in which only Bcl-2-CFP plasmid was transfected, the values at 475 nm emission wave length and 433 nm excitation wave length were recorded. As for the cell group in which only Bax-YFP plasmid was transfected, the values at 527 nm emission wave length and 505 nm excitation wave length were recorded. […] The ratio of fluorescence intensity at 527 nm and 475 nm emission wave lengths was FRET. The FRET for the control group in which the plasmid was solely transfected was set as 1.0. […] The cellular vitality was detected by MTT method.
Wherein the concentration and time meant that the detected compound interfered with the interaction between Bcl-2 and Bax at the concentration for the time period.

[2] = test system: MCF-7 cells; test: cytotoxicity depending on BAX/BAK, MTT, MCF-7 cells with or without BAX/BAK interfering plasmid; format: cell-based
Description: 3 ng of BAX/BAK interfering plasmid was transfected into MCF-7 cells by using calcium phosphate coprecipitation method, 24 hours later, the cells were collected. The expressions after the BAX and BAK proteins interfered with RNA was detected by Western, and the cell groups without plasmid transfection were treated similarly and were set as the control group. The transfected cells were inoculated in a 96-well plate (1×10^5 cells/well), the control experiment of the cell group without plasmid transfection was carried out in parallel. The compound 3-thiomorpholinyl-8-oxo-8 H-acenaphtho[1,2-b]pyrrole-9-carbonitrile to be detected was added thereinto according to the concentration gradient designed before the experiment. 48 hours later, the cellular vitality was detected by MTT. The experimental results were shown in FIG. 6, Gossypol as nonspecific BH3 analogue was treated in parallel.

[3] = phase solubility experiment (solubility in water before and after cyclodextrin inclusion or complexation); conditions: thermodynamic from solid, Solubility of compounds
[4] = test system: hepatoma carcinoma cells H22; test: in vivo tumor model, subcutaneous H22 tumor in Kunming mice; conditions: H22 mouse model of Example 25; dose and route not stated at the place
Description: The Kunming mice (in China) were randomly divided into groups, with 10 mice in each group. The cultivated hepatoma carcinoma cells H22 were inoculated subcutaneously in the oxter of the mice with 200 μL/mouse. After bearing the cancer cells for five days, the subcutaneous tumor was formed. Then the compound 3-thiomorpholinyl-8-oxo-8H-acenaphtho[1,2-b]pyrrole-9-carbonitrile and γ-cyclodextrin inclusion compound thereof were given by peritoneal injection, and the compound to be detected included by γ-cyclodextrin was given by oral administration. The detection conditions comprise:
Blank control group: the mice were not treated in any manner after the bearing cancer;
Control group (1): the mice were given a peritoneal injection of DMSO solution every other day after the bearing cancer, 10 days in total;
Control group (2): the mice were given a peritoneal injection of cyclodextrin solution every other day after the bearing cancer, 10 days in total;
Experimental group (1): the mice were given a peritoneal injection of DMSO solution equivalent to 0.03 mg/kg BW compound every other day after the bearing cancer, 10 days in total;
Experimental group (2): the mice were given a peritoneal injection of DMSO solution equivalent to 0.3 mg/kg BW compound every other day after the bearing cancer, 10 days in total;
Experimental group (3): the mice were given a peritoneal injection of inclusion compound water solution equivalent to 0.3 mg/kg BW compound every other day after the bearing cancer, 10 days in total;
Experimental group (4): the mice were given an intragastric administration of inclusion compounds water solution equivalent to 0.3 mg/kg BW compound every other day after the bearing cancer, 10 days in total;
During the experimental period, the length-diameter (a) and short diameter (b), which was perpendicular to the length-diameter, of the tumor were detected twice every week. The gross tumor volume was determined according to the formula: ½ab^2. The survival time of the animal was observed. The tumor inhibition rate was calculated by the tumor volume on the fortieth day.

[5] = test system: Mcl-1; test: Western blotting, inhibition (downregulation) of Mcl-1 in tumor cells, Example 23; format: cell-based
Description: (§1) The interest protein was detected by the corresponding antibody. The expression of the interest protein in the cells was detected by horseradish peroxidase-labeled secondary antibodies in combination with ECL coloration method. […] The concentration of the protein bands in the Western images were carried out semiquantitative analysis and normalization treatment with KODAK Gel Logic 1500 imaging system software.

[6] = test system: Bcl-2; test: Western blotting, inhibition (downregulation) of Bcl-2 in tumor cells, Example 23; format: cell-based
Description: as §1

[7] = test system: Bax protein; test: co-localization between Bax protein and chondriosome, Bax-YFP transfected MCF-7 cells; format: cell-based
Description: 5 ng of Bax-YFP plasmid was transfected into MCF-7 cells by using calcium phosphate coprecipitation method, 24 hours later, the cells were inoculated in a 6-well plate (0.2×10^6 cells/well), and 10 μM of the compound 3-thiomorpholinyl-8-oxo-8 H-acenaphtho[1,2-b]pyrrole-9-carbonitrile to be detected was added thereinto. 6 hours later, the cells were washed with PBS and hatched away from light with 50 nM Mito Tracker Red CMXRos (chondriosome specific probes; red) for 10 minutes. Then the cells were washed with PBS for three times, and the fluorescent image was scanned with Radiance2000 laser confocal microscopy (Bio-Rad, USA). Meanwhile, dual channel scanning was carried out, one channel was used to scan the green fluorescence of Bax-YFP, and the other channel was used to scan the red fluorescence of the CMXRos probe for indicating the chondriosome. […] When the Bax protein was localized on the chondriosome, the green and red fluorescence was superimposed into orange, as shown in FIG. 4.
Other 8 compounds were detected by the same experimental method as described above. […] Wherein the concentration and time meant that the detected compound simulated the BH3-only protein and driven the BAX to shift towards the chondriosome at the concentration for the time period.

[8] = Table 1, compound per se, before inclusion

Compound: N#CC1=C2C(=NC1=O)c1cccc3c(C(=O)c4cccc(F)c4)ccc2c13 [3-(3-fluorophenylformyl)-8-oxo-8H-acenaphtho[1,2-b]pyrrole-9-carbonitrile]
Time for which the compound interfered with the interaction between Bcl-2 and Bax ([1]; goes with the concentration of E11): 6 h | Concentration at which the compound interfered with the interaction between Bcl-2 and Bax ([1]; goes with the time of E12): 10.0 µM | dependence of cytotoxicity on BAX/BAK [2]: absolute dependence on BAX/BAK

Compound: N#CC1=C2C(=NC1=O)c1cccc3c(Sc4ccc(N)cc4)ccc2c13 [3-(4-aminophenylthio)-8-oxo-8H-acenaphtho[1,2-b]pyrrole-9-carbonitrile]
solubility [3, 8]: 0.25 µM (≈ 0.0884 µg/mL)

Compound: O=C(O)C1=C2C(=NC1=O)c1cccc3c(Sc4ccc(Br)cc4)ccc2c13 [3-(4-bromophenylthio)-8-oxo-8H-acenaphtho[1,2-b]pyrrole-9-carboxylic acid]
solubility ([3]; Table 2, compound per se, before complexation): 0.55 µM (≈ 0.24 µg/mL) | tumor inhibition rate [4]: 45%

Compound: COc1ccc(Oc2ccc3c4c(cccc24)C2=NC(=O)C(C#N)=C23)cc1 [3-(4-methoxyphenoxy)-8-oxo-8H-acenaphtho[1,2-b]pyrrole-9-carbonitrile]
solubility [3, 8]: 0.32 µM (≈ 0.113 µg/mL)

Compound: CC(C)(C)NC(=O)C1=C2C(=NC1=O)c1cccc3c(Oc4ccccc4)ccc2c13 [3-phenoxy-8-oxo-8H-acenaphtho[1,2-b]pyrrole-9-N-tert-butylamide]
downregulation of Mcl-1 protein, semiquantitative analysis (band concentration, control = 1) ([5]; 6 hours): 0.99 | downregulation of Mcl-1 protein, semiquantitative analysis (band concentration, control = 1) ([5]; 12 hours): 0.99 | downregulation of Mcl-1 protein, semiquantitative analysis (band concentration, control = 1) ([5]; 18 hours): 0.78 | downregulation of Mcl-1 protein, semiquantitative analysis (band concentration, control = 1) ([5]; 24 hours): 0.51 | inhibition against Mcl-1 ([5]; Western blotting, tumor cells): had the inhibition against Bcl-2 and Mcl-1 proteins | downregulation of Bcl-2 protein, semiquantitative analysis (band concentration, control = 1) ([6]; 2 hours): 0.80 | downregulation of Bcl-2 protein, semiquantitative analysis (band concentration, control = 1) ([6]; 6 hours): 0.56 | inhibition against Bcl-2 ([6]; Western blotting, tumor cells): had the inhibition against Bcl-2 and Mcl-1 proteins

Compound: O=C(O)C1=C2C(=NC1=O)c1cccc3c(Oc4ccccc4)ccc2c13 [3-phenoxy-8-oxo-8H-acenaphtho[1,2-b]pyrrole-9-carboxylic acid]
Time for which the compound drove the BAX to shift towards the chondriosome ([7]; goes with the concentration of E14): 6 h | Concentration at which the compound drove the BAX to shift towards the chondriosome ([7]; goes with the time of E15): 10.0 µM | dependence of cytotoxicity on BAX/BAK [2]: absolute dependence on BAX/BAK

Compound: NC(=O)C1=C2C(=NC1=O)c1cccc3c(N4CCSCC4)ccc2c13 [3-thiomorpholinyl-8-oxo-8H-acenaphtho[1,2-b]pyrrole-9-carboxamide]
tumor inhibition rate [4]: 45%

Other lines, results leading:

solubility [3, 8]: 0.25 µM (≈ 0.0841 µg/mL)
Compound: Cc1ccc(Oc2ccc3c4c(cccc24)C2=NC(=O)C(C#N)=C23)cc1 [3-(p-methylphenoxy)-8-oxo-8H-acenaphtho[1,2-b]pyrrole-9-carbonitrile]

solubility [3, 8]: 0.22 µM (≈ 0.0744 µg/mL)
Compound: N#CC1=C2C(=NC1=O)c1cccc3c(Sc4ccccc4)ccc2c13 [3-phenylthio-8-oxo-8H-acenaphtho[1,2-b]pyrrole-9-carbonitrile]

solubility [3, 8]: 0.12 µM (≈ 0.0437 µg/mL)
Compound: CC(C)c1ccc(Oc2ccc3c4c(cccc24)C2=C(C#N)C(=O)N=C23)cc1 [4-(4-isopropylphenoxy)-8-oxo-8H-acenaphtho[1,2-b]pyrrole-9-carbonitrile]
